For twelve compounds, IC50 and inhibition results are on record in US20200171030A1, “DUAL INHIBITORS OF ALK5 AND P38A MAP KINASE” (INTEGRAL BIOSCIENCES PRIVATE LIMITED, priority 2018, published 2020).

SMILES strings stand for the structures. Structures can show the parent of a compound that is named as a salt. Where two headings read alike, the source gives them in different places. Where only a bound is given, the exact number is not on record here.

One experiment deals with MIA PaCa-2. As to the kind of experiment: Cell viability assay (resazurin, 96 hr) in MIA PaCa-2. The class given is cell-based. Particulars: Homo sapiens; MIA PaCa-2 pancreatic cell line, 96 hr exposure; read-out: MiaPaCa-2_Cell Viability_IC50. How it is done: (§1) Cell Viability Assay in MIA PaCa-2 and Panc-1
(§2) MIA PaCa-2 (ATCC® CRL-1420™) and Panc-1 (CRL-1469™), both pancreatic cell lines were seeded in their respective medium (DMEM, Cat #10569044 with 10% FBS, Cat #16000044; Gibco for Panc-1 and an additional 2.5% Horse Serum, Cat #16050122; Gibco for MIA PaCa-2) at a cell count of 3000 cells per 100 μl per well in a 96 well edge plate (167425; ThermoFisher). Cells were allowed to grow at 37° C. for 24 hr in 5% CO2 (culture conditions) in a Nuaire incubator (humidified). Serially diluted compounds (100 μl) were added to the culture plate 24 hr later and the cultures (MIA PaCa-2 and Panc-1) were further incubated in culture conditions for 96 hr. Experiment was terminated at the completion of 96 hr exposure to the drug by replacing the medium with 100 μl of 1 mM of resazurin (R7017; Sigma) prepared in culture medium and the plates were further incubated in culture conditions for 4 hr. Fluorescence was then measured using a multimodal plate reader (Biotek Synergy Neo) at an excitation wavelength of 535 nm and emission wavelength of 590 nm to obtain relative fluorescence units. Data analysis was done by subtracting the background fluorescence (only medium blank) value from each reading and then normalizing with the vehicle control (DMSO treated cells) to obtain percent survival/proliferation. Percent survival at different doses was used to calculate IC50 by fitting the curve to the “four-parameter variable slope logistic model” using Prism Graph Pad.
In general terms: Resazurin is reduced to fluorescent resorufin, in cell work by metabolically active cells.

A further experiment addresses T1, MAPK14/p38α kinase (Homo sapiens, UniProt Q16539).
T1 construct: purchased ThermoFisher PV3304
Kind of experiment: MAPK14/p38α kinase assay (LanthaScreen TR-FRET). The class given is biochemical. The settings on record: for inhibition at 0.1 µM: 100 nM concentration of compound; for IC50: Table 3, read-out: IC50 (P38 alpha). As to the method:
MAPK14/p38α Kinase Assay for IC50 Determination:
IC50 values of compounds against MAPK14/P38α kinase were determined by Lanthascreen based TR-FRET assay. Kinase reactions were performed in a 10 μL volume in low-volume 384-well plates. The concentration of substrate was maintained at 400 nM in the assay, and the kinase reaction buffer (1×; Cat # PV3189, ThermoFisher) consisted of 50 mM HEPES pH 7.5, 0.01% BRIJ-35, 10 mM MgCl2, and 1 mM EGTA. Serially diluted compounds (3-fold) in DMSO (0.5% in final reaction) were incubated with cocktail of MAPK14/p38α kinase (20 ng/ml; Cat # PV3304, ThermoFisher), Substrate GFP-ATF2 (19-96), (0.4 μM; Cat # PV4445, ThermoFisher), ATP (90 μM; Cat # PV3227, ThermoFisher) and buffer. Kinase reactions were allowed to proceed for 1 hour at room temperature before EDTA (10 mM; Cat # P2825, ThermoFisher) and LanthaScreen™ Tb-antipATF2 (pThr71) Antibody (2 nM; Cat # PV4451, ThermoFisher) in TR-FRET dilution buffer (IX; Cat # PV3574, ThermoFisher) were added. The plate was allowed to incubate at room temperature for 30 minutes before being read on a BMG Pherastar plate reader using the LanthaScreen™ filter block for LanthaScreen™ TR-FRET.
The resulting TR-FRET emission ratio was plotted against the concentration of inhibitor, and the data was fit to a sigmoidal dose-response curve with a variable slope. The IC50 for the inhibitor was calculated from the curve.

The test system of another experiment is Panc-1. Kind of experiment: Cell viability assay (resazurin, 96 hr) in Panc-1. Particulars: Homo sapiens; Panc-1 pancreatic cell line, 96 hr exposure; read-out: Panc-1_Cell Viability_IC50. The class given is cell-based. How it is done:
as §1, §2

The next experiment concerns the target T2, TGFBR1 (ALK5) (Homo sapiens, UniProt P36897).
T2 sequence (P36897 34-503): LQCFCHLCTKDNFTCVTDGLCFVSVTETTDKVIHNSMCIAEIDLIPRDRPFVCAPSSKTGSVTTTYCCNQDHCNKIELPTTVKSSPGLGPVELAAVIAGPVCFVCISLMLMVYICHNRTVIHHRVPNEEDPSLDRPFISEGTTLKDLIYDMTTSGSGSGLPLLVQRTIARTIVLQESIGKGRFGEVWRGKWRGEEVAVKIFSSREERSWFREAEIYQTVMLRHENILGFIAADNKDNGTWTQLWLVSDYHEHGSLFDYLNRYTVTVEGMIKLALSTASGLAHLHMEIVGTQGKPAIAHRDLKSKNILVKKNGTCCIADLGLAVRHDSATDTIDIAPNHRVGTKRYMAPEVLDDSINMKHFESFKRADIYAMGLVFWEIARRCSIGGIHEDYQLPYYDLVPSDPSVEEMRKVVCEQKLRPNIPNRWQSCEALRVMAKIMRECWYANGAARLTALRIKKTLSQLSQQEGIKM
Kind of experiment: ALK5 kinase assay (LanthaScreen Terbium labeled TR-FRET). The class given is biochemical. The settings on record: for inhibition at 0.1 µM: 100 nM concentration of compound, read-out: Enzyme Activity TGFBR1 (ALK5) % Inhibition at 100 nM. As to the method:
ALK5 Kinase Assay for IC50 Determination:
IC50 values of compounds against TGFβ kinase was determined by LanthaScreen™ Terbium Labeled TR-FRET assay. Kinase assays were performed in IX kinase buffer (# PV6135, Invitrogen, Life Technologies Grand Island, N.Y.) where total reaction volume was 10 μL in low-volume 384-well plates (#4511,Corning). Serially diluted compounds (3-fold) were incubated with TGFβ kinase (6 nM) for 10 min, following which a mixture of ATP (10 μM) (# A1852, Sigma, St-Louis, Mo.) and fluorescent-PolyGT substrate (200 nM) (# PV3610, Invitrogen, Life Technologies Grand Island, N.Y.) was added and incubated in dark at room temperature for 1 h. After 1 h, 10 μL stop solution containing Terbium labeled antibody (4 nM) (# PV3529, Invitrogen, Life Technologies Grand Island, N.Y.) and EDTA (# E5134, Sigma, St-Louis, Mo.) (20 mM) in TR-FRET dilution buffer (# PV3574, Invitrogen, Life Technologies Grand Island, N.Y.) was added. Readings were taken in a Synergy Neo Plate reader (BioTek, Winooski) at single excitation of 340 nm and Dual emission at 495 nm and 520 nm respectively.
The % activity of test samples was calculated as (Sample−Min)×100/(Max−Min). [Max: DMSO control, complete reaction with enzyme with DMSO and Min: No enzyme with DMSO]. Percent inhibition (100-% activity) was fitted to the “four-parameter logistic model” in XLfit for determination of IC50 values.
Background: TR-FRET usually uses a lanthanide donor and a delayed reading to cut background.

The mark [1] stands for this setting: read-out: Enzyme Activity MAPK14 (p38 alpha) % Inhibition at 100 nM.
The mark [2] stands for this setting: Table 4, read-out: Enzyme Activity MAPK14 (p38alpha) % Inh at 100 nM.

T1 sequence (Q16539 whole entry): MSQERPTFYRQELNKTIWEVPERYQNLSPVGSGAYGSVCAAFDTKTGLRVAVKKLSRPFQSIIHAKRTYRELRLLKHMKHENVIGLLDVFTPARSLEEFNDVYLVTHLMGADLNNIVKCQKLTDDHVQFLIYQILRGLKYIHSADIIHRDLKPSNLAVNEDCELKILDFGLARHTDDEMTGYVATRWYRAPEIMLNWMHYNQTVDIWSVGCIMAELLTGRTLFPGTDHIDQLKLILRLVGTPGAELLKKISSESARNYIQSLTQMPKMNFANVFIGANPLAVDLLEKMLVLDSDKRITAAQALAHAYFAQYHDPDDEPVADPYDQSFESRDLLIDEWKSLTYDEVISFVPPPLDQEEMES

For `CC(C)c1cnc(-c2ccc(F)cc2)nc1Nc1ccnc2[nH]cc(N3CCNCC3C)c12` (stereo not drawn) [Compound No. 4, N-(2-(4-fluorophenyl)-5-isopropylpyrimidin-4-yl)-3-(2-methylpiperazin-1-yl)-1H-pyrrolo[2,3-b]pyridin-4-amine hydrochloride], the IC50 came to 1540 nM in the experiment with MIA PaCa-2 and 1880 nM in the experiment on Panc-1. Further, the inhibition at 0.1 µM on MAPK14/p38α kinase (setting [1]) stood at 72%; at TGFBR1 (ALK5) it was 94%.
Consider `CC(C)c1cnc(-c2ccc(F)cc2)nc1Nc1ccnc2[nH]cc(N3CCOCC3)c12` [Compound No. 5, N-(2-(4-fluorophenyl)-5-isopropylpyrimidin-4-yl)-3-morpholino-1H-pyrrolo [2,3-b] pyridin-4-amine hydrochloride], for which the IC50 in the experiment with MIA PaCa-2 and in the experiment on Panc-1 was > 30000 nM throughout. The inhibition at 0.1 µM on MAPK14/p38α kinase (setting [1]) was determined as 7%; on TGFBR1 (ALK5), 88%.
For the compound `CC(C)c1cnc(-c2ccc(F)cc2)nc1Nc1ccnc2[nH]cc(-n3cncn3)c12` [Compound No. 6, N-(2-(4-fluorophenyl)-5-isopropylpyrimidin-4-yl)-3-(1H-1,2,4-triazol-1-yl)-1H-pyrrolo [2,3-b] pyridin-4-amine hydrochloride], the IC50 amounted to 655 nM in the experiment with MIA PaCa-2 and 645 nM with Panc-1. Further, the values for the inhibition at 0.1 µM on MAPK14/p38α kinase (setting [1]) and on TGFBR1 (ALK5) were 0% and 97%, respectively.
Turning to `CC(C)c1cnc(-c2ccc(F)cc2)nc1Nc1ccnc2[nH]cc(N3CCNC[C@@H]3C)c12` [Compound No. 7, N-(2-(4-fluorophenyl)-5-isopropylpyrimidin-4-yl)-3-(2-methylpiperazin-1-yl)-1H-pyrrolo [2,3-b] pyridin-4-amine hydrochloride], the IC50 in the experiment with MIA PaCa-2 worked out at 2440 nM; on MAPK14/p38α kinase it was 42 nM; in the experiment on Panc-1 it was 2700 nM; at TGFBR1 (ALK5) (Table 3, read-out: IC50 (ALK5)), 155 nM.
Regarding `CC(C)c1cnc(-c2ccc(F)cc2)nc1Nc1ccnc2[nH]cc(N3CCNC[C@H]3C)c12` [Compound No. 8, N-(2-(4-fluorophenyl)-5-isopropylpyrimidin-4-yl)-3-(2-methylpiperazin-1-yl)-1H-pyrrolo [2,3-b] pyridin-4-amine hydrochloride], the IC50 with MIA PaCa-2 is > 30000 nM; on MAPK14/p38α kinase, 61 nM; in the experiment with Panc-1, > 30000 nM; at TGFBR1 (ALK5) (Table 3, read-out: IC50 (ALK5)), 95 nM.
Take `CC(C)c1cnc(-c2ccc(F)cc2)nc1Nc1ccnc2[nH]cc(N3CCN[C@H](C)C3)c12` [Compound No. 9, (R)—N-(2-(4-fluorophenyl)-5-isopropylpyrimidin-4-yl)-3-(3-methylpiperazin-1-yl)-1H-pyrrolo[2,3-b]pyridin-4-amine hydrochloride]: the IC50 with MIA PaCa-2 was 3530 nM; in the experiment on Panc-1 it was 3280 nM; at TGFBR1 (ALK5) (Table 4, read-out: ALK5 IC50) it was 103 nM. For the same compound, the inhibition at 0.1 µM at MAPK14/p38α kinase (setting [2]) was 52%.
Consider `CC(C)c1cnc(-c2ccc(F)cc2)nc1Nc1ccnc2[nH]cc(N3CCNC(=O)C3)c12` [Compound No. 10, 4-(4-(2-(4-fluorophenyl)-5-isopropylpyrimidin-4-ylamino)-1H-pyrrolo [2,3-b]pyridin-3-yl) piperazin-2-one formate], for which the IC50 with MIA PaCa-2 came out at 3460 nM; in the experiment on Panc-1 it was 2730 nM; at TGFBR1 (ALK5) (Table 4, read-out: ALK5 IC50) it was 303 nM. The inhibition at 0.1 µM on MAPK14/p38α kinase (setting [2]) came to 28%.
Turning to `CC(C)c1cnc(-c2ccc(F)cc2)nc1Nc1ccnc2[nH]cc(N3CCN[C@@H](C)C3)c12` [Compound No. 11, (S)—N-(2-(4-fluorophenyl)-5-isopropylpyrimidin-4-yl)-3-(3-methylpiperazin-1-yl)-1H-pyrrolo[2,3-b]pyridin-4-amine hydrochloride], the IC50 worked out at 2040 nM in the experiment on MIA PaCa-2; 2820 nM in the experiment with Panc-1; 147 nM on TGFBR1 (ALK5) (Table 4, read-out: ALK5 IC50). The inhibition at 0.1 µM on MAPK14/p38α kinase (setting [2]) worked out at 18%.
`CC(C)c1cnc(-c2ccc(F)cc2)nc1Nc1ccnc2[nH]cc(N3CCC(C(N)=O)CC3)c12` [Compound No. 12, 1-(4-((2-(4-fluorophenyl)-5-isopropylpyrimidin-4-yl)amino)-1H-pyrrolo[2,3-b]pyridin-3-yl)piperidine-4-carboxamide formic acid]: the IC50 was 1780 nM in the experiment with MIA PaCa-2; 2600 nM in the experiment on Panc-1; 1170 nM on TGFBR1 (ALK5) (Table 4, read-out: ALK5 IC50). Besides, on MAPK14/p38α kinase (setting [2]), the inhibition at 0.1 µM was determined as 37%.
With `CC(C)c1cnc(-c2ccc(F)cc2)nc1Nc1ccnc2[nH]cc(C(=O)C(N)=O)c12` [Compound No. 17, 2-(4-((2-(4-fluorophenyl)-5-isopropylpyrimidin-4-yl)amino)-1H-pyrrolo[2,3-b]pyridin-3-yl)-2-oxoacetamide hydrochloride], the IC50 with MIA PaCa-2 was 765 nM; at MAPK14/p38α kinase, 309 nM; in the experiment on Panc-1, > 30000 nM; at TGFBR1 (ALK5) (Table 3, read-out: IC50 (ALK5)), > 5000 nM.
As for `CNC(=O)C(=O)c1c[nH]c2nccc(Nc3nc(-c4cc(Cl)ccc4F)ncc3C(C)C)c12` [Compound No. 18, 2-(4-((2-(5-chloro-2-fluorophenyl)-5-isopropylpyrimidin-4-yl)amino)-1H-pyrrolo[2,3-b]pyridin-3-yl)-N-methyl-2-oxoacetamide hydrochloride], the IC50 in the experiment with MIA PaCa-2 is > 30000 nM; on MAPK14/p38α kinase, 349 nM; with Panc-1 it was > 30000 nM; at TGFBR1 (ALK5) (Table 3, read-out: IC50 (ALK5)), > 5000 nM.
Take `CC(C)c1cnc(-c2ccc(F)cc2)cc1Nc1ccnc2[nH]cc(C(=O)C(N)=O)c12` [Compound No. 19, 2-(4-((2-(4-fluorophenyl)-5-isopropylpyridin-4-yl)amino)-1H-pyrrolo[2,3-b]pyridin-3-yl)-2-oxoacetamide hydrochloride]: the IC50 with MIA PaCa-2 stood at 15500 nM; on MAPK14/p38α kinase it was 1760 nM; with Panc-1, 23200 nM; on TGFBR1 (ALK5) (Table 3, read-out: IC50 (ALK5)) it was 278 nM.
